Measurements from PMC11606603, “The membrane domains of mammalian adenylyl cyclases are lipid receptors” (eLife, 2024).
Where “and” joins values, the source holds several entries; their conditions need not be identical. Equal entries are not always repeated.

Columns and labels:
Assay type in all cases: biochemical
[1] = target: T1, mAC1 (Homo sapiens, UniProt Q08828); assay: AC assay, Gsα-stimulated mAC1 in membranes from transfected HEK293 cells; details: 20 µM fatty acid; 300 nM Gsα; single experiments
T1 construct: Human mAC genes were from GenScript and fitted with a C-terminal FLAG-tag; FLAG (C); made in house; host or cells: HEK293, permanently transfected; membrane preparation
Description: (§1) hAC sequences were from NCBI were: ADCY1: NM_021116.3; ADCY2: NM_020546.2; ADCY3: NM_004036.4; ADCY4: NM_001198568.2; ADCY5: NM_183357.2; ADCY6: NM_015270.4; ADCY7: NM_001114.4; ADCY8: NM_001115.2; ADCY9: NM_001116.3. Human mAC genes were from GenScript and fitted with a C-terminal FLAG-tag. […] The gene was synthesized by GenScript. HEK293 cells were maintained in Dulbeccos Modified Eagle Medium (DMEM) with 10% fetal bovine serum at 37°C and 5% CO2. Transfection with AC plasmids was with PolyJet (SignaGen, Frederick, MD, USA). Permanent cell lines were generated by selection for 7 days with 600 µg/ml G418 and maintained with 300 µg/ml For membrane preparation, cells were tyrpsinized, collected by centrifugation (3000 × g, 5 min) and lysed and homogenized in 20 mM HEPES, pH 7.5, 1 mM Ethylenediaminetetraacetic acid (EDTA), 2 mM MgCl2, 1 mM Dithiothreitol (DTT), one tablet of cOmplete, EDTA-free (per 50 ml) and 250 mM sucrose by 20 strokes in a potter homogenizer on ice. Debris was removed (5 min at 1000 × g, 0°C), membranes were collected at 100,000 × g, 60 min at 0°C, suspended and stored at −80°C in 20 mM MOPS, pH 7.5, 0.5 mM EDTA, 2 mM MgCl2. […] Three cerebral cortices were dissected and homogenized in 4.5 ml cold 48 mM Tris–HCl, pH 7.4, 12 mM MgC1_2, and 0.1 mM Ethylene glycol-bis(β-aminoethyl ether)-N,N,N′,N′-tetraacetic acid (EGTA) with a Polytron hand disperser (Kinematica AG, Switzerland). […] The pellet was washed once with 5 ml 1 mM KHCO3. The final suspension in 2 ml 1 mM KHCO3 was stored in aliquots at −80°C.
(§2) In a volume of 10 μl, AC activities were measured using 1 mM ATP, 2 mM MgCl2, 3 mM creatine phosphate, 60 μg/ml creatine kinase, and 50 mM MOPS pH 7.5. The cAMP assay kit from Cisbio (Codolet, France) was used for detection according to the supplier’s instructions. For each assay, a cAMP standard curve was established. EC50 and IC50 values were calculated by GraphPad Prism version 8.4.3 for Windows, GraphPad Software, San Diego, CA, USA, https://www.graphpad.com .

[2] = target: T2, mAC8 (Homo sapiens, UniProt P40145); assay: AC assay, Gsα-stimulated mAC8 in membranes from transfected HEK293 cells; details: 20µM fatty acid concentration
T2 construct: Human mAC genes were from GenScript and fitted with a C-terminal FLAG-tag; FLAG (C); made in house; host or cells: HEK293, permanently transfected; membrane preparation
T2 sequence (P40145 whole entry): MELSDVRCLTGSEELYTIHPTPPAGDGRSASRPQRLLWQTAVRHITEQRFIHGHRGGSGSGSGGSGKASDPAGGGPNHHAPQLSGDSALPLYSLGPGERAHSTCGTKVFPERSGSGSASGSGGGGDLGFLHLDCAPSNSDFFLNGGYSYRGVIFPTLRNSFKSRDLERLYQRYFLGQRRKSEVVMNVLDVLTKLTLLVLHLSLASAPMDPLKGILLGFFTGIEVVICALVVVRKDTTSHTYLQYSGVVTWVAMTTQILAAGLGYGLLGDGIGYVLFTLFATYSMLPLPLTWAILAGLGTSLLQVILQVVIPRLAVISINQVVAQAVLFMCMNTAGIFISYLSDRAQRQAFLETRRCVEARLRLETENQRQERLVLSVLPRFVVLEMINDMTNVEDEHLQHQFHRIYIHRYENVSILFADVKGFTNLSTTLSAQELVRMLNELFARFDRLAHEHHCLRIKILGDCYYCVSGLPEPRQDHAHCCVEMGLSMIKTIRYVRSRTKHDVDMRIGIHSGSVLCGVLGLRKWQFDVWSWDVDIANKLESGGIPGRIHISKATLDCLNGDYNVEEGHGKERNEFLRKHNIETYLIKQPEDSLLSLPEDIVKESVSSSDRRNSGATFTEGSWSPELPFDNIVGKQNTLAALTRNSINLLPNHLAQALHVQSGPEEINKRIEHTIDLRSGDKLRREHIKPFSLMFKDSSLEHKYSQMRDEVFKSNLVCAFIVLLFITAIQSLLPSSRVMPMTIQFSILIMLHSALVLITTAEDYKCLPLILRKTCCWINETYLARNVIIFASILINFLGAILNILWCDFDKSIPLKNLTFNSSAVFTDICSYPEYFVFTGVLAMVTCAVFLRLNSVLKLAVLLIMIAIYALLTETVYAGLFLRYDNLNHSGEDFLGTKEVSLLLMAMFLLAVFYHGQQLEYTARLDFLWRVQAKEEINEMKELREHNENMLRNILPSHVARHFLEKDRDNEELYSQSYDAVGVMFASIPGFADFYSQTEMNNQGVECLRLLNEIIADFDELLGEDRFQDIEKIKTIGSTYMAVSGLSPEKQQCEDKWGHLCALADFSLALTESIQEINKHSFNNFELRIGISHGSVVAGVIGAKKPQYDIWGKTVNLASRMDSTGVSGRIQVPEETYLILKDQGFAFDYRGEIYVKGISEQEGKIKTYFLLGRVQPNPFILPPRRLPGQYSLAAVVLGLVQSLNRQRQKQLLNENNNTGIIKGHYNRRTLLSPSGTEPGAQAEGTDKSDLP
Description: as §1, §2

[3] = target: T3, mAC3 (Homo sapiens, UniProt O60266); assay: AC assay, Gsα-stimulated mAC3 in membranes from transfected HEK293 cells; details: fatty acid 20 µM; individual experiments
T3 construct: Human mAC genes were from GenScript and fitted with a C-terminal FLAG-tag; FLAG (C); made in house; host or cells: HEK293, permanently transfected; membrane preparation
Description: as §1, §2

[4] = target: T4, mAC5 (Homo sapiens, UniProt O95622); assay: AC assay, Gsα-stimulated mAC5 in membranes from transfected HEK293 cells; details: 20µM fatty acid concentration
T4 construct: Human mAC genes were from GenScript and fitted with a C-terminal FLAG-tag; FLAG (C); made in house; host or cells: HEK293, permanently transfected; membrane preparation
T4 sequence (O95622 whole entry): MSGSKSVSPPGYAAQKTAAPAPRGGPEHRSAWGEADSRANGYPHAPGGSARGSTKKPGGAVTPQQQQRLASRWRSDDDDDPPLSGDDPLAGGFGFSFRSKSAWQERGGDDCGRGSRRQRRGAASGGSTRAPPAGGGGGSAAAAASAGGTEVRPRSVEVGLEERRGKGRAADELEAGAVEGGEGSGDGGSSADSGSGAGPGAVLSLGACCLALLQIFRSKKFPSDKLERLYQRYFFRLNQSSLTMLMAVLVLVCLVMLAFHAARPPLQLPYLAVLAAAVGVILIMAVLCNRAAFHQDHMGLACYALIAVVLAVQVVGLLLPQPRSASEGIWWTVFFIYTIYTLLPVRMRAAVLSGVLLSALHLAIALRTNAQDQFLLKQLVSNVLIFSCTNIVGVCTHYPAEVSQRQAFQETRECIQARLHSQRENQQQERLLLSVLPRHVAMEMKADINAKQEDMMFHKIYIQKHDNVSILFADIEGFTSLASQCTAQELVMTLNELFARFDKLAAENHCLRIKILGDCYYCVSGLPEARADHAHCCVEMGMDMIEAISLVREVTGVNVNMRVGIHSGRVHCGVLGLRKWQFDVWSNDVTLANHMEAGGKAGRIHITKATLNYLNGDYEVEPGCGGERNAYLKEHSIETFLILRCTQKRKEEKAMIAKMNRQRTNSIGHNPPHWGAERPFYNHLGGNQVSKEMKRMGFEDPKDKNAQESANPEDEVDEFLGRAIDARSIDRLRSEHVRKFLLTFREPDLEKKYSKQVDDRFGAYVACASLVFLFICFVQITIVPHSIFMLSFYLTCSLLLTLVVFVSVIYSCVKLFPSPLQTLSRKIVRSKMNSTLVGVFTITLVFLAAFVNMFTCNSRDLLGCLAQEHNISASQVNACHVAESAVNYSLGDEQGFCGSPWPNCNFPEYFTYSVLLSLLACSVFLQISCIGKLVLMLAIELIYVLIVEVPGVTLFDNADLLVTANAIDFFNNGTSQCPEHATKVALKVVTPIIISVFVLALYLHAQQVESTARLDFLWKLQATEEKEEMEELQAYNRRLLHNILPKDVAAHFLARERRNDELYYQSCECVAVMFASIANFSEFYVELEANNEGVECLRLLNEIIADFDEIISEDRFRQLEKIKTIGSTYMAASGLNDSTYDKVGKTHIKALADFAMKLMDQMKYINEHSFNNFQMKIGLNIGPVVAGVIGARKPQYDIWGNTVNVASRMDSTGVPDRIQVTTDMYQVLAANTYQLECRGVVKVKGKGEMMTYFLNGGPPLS
Description: as §1, §2

[5] = target: T5, mAC4 (Homo sapiens, UniProt Q8NFM4); assay: AC assay, Gsα-stimulated mAC4 in membranes from transfected HEK293 cells; details: 20 µM fatty acid; 300 nM Gsα; single experiments
T5 construct: Human mAC genes were from GenScript and fitted with a C-terminal FLAG-tag; FLAG (C); made in house; host or cells: HEK293, permanently transfected; membrane preparation
T5 sequence (Q8NFM4 1-1077): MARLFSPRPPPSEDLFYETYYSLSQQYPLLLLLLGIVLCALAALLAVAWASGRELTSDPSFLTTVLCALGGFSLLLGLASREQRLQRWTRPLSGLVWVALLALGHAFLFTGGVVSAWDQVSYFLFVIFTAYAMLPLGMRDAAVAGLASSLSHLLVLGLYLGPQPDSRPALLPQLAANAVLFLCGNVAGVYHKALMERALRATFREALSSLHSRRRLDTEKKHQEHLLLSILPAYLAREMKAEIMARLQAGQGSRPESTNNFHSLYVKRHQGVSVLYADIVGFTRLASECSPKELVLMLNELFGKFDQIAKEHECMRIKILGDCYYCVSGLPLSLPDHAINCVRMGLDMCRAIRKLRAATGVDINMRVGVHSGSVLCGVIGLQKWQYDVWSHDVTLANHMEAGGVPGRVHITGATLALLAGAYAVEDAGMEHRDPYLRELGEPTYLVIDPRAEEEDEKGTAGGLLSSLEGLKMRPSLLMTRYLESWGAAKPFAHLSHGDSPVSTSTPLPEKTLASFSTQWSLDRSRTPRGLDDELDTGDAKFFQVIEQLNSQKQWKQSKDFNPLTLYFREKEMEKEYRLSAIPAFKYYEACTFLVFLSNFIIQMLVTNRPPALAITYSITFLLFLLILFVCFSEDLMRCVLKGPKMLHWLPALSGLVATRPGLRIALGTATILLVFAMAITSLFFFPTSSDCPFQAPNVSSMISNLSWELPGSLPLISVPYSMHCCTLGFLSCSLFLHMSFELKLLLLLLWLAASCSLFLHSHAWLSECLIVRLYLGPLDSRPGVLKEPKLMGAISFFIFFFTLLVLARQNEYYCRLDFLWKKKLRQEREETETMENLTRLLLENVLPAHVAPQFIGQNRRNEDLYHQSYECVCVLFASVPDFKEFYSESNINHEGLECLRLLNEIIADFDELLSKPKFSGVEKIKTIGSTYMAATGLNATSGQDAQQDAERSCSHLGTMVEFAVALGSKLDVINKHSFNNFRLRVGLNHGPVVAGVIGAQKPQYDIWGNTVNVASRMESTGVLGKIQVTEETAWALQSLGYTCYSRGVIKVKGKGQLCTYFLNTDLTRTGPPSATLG
Description: as §1, §2

[6] = target: T6, mAC6 (Homo sapiens, UniProt O43306); assay: AC assay, Gsα-stimulated mAC6 in membranes from transfected HEK293 cells; details: 20µM fatty acid concentration
T6 construct: Human mAC genes were from GenScript and fitted with a C-terminal FLAG-tag; FLAG (C); made in house; host or cells: HEK293, permanently transfected; membrane preparation
Description: as §1, §2

[7] = target: T7, mAC2 (Homo sapiens, UniProt Q08462); assay: AC assay, Gsα-stimulated mAC2 in membranes from transfected HEK293 cells; details: Figure 5-figure supplement 1 left, 20 µM
T7 construct: Human mAC genes were from GenScript and fitted with a C-terminal FLAG-tag; FLAG (C); made in house; host or cells: HEK293, permanently transfected; membrane preparation
Description: as §1, §2

[8] = target: T8, mAC7 (Homo sapiens, UniProt P51828); assay: AC assay, Gsα-stimulated mAC7 in membranes from transfected HEK293 cells; details: Figure 5-figure supplement 2 left, 20 µM
T8 construct: Human mAC genes were from GenScript and fitted with a C-terminal FLAG-tag; FLAG (C); made in house; host or cells: HEK293, permanently transfected; membrane preparation
Description: as §1, §2

[9] = target: T9, mAC9 (Homo sapiens, UniProt O60503); assay: AC assay, Gsα-stimulated mAC9 in membranes from transfected HEK293 cells
T9 construct: Human mAC genes were from GenScript and fitted with a C-terminal FLAG-tag; FLAG (C); made in house; host or cells: HEK293, permanently transfected; membrane preparation
T9 sequence (O60503 whole entry): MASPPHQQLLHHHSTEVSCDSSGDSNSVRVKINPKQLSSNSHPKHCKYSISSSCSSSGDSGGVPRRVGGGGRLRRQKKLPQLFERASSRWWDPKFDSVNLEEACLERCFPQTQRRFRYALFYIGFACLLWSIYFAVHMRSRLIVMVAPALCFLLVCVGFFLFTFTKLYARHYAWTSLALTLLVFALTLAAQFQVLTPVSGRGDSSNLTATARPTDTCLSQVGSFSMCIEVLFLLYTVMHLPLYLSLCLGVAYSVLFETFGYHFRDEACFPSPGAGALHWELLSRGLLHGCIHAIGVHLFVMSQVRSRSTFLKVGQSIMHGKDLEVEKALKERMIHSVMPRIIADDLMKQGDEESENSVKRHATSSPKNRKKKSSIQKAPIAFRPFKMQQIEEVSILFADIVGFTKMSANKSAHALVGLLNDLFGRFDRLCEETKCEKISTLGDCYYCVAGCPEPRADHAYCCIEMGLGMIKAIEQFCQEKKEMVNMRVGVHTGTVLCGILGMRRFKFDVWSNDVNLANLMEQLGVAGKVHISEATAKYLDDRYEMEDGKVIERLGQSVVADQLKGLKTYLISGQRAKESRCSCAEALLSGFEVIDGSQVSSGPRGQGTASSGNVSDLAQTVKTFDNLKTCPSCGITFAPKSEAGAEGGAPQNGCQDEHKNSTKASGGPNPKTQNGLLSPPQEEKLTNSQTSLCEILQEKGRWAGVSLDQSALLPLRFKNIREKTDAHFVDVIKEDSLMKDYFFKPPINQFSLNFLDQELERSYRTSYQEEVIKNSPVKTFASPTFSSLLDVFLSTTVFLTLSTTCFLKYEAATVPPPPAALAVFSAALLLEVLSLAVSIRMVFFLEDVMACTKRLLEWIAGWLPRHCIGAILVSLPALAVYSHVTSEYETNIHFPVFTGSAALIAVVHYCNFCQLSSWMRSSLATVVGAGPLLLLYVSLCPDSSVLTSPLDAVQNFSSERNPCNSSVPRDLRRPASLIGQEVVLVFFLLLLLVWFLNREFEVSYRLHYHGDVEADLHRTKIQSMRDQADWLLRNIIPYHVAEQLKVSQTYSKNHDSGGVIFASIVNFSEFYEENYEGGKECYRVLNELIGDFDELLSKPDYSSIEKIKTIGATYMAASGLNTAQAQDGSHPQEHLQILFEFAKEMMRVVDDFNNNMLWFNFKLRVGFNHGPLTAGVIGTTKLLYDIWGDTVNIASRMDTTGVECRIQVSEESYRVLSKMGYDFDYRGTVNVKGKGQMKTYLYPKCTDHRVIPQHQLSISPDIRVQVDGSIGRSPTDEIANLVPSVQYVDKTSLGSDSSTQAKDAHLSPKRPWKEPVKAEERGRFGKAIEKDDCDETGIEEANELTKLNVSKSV
T9 sequence (P63092 2-394 Q227L partner): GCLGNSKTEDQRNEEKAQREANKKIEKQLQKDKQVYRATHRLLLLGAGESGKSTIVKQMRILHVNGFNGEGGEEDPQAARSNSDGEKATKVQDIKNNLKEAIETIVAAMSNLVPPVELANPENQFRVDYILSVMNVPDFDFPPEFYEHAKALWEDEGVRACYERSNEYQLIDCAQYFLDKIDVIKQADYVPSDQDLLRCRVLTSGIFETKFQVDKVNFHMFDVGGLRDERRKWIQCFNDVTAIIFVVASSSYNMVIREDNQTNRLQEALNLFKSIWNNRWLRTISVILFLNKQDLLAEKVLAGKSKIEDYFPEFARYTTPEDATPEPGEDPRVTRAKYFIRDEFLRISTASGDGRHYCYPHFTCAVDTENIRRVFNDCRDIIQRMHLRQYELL
Description: as §1, §2

Row | mAC9 activity (%);(100% = Gsα stimulation) stimulated by 300nM Gsα ([9]; 3 µM fatty acid, 300 nM Gsα, single experiments) | mAC9 activity (%);(100% = Gsα stimulation) stimulated by 300nM Gsα ([9]; 6 µM fatty acid, 300 nM Gsα, single experiments) | EC50 ([9]; enhancement of 300 nM Gsα-stimulated activity, read-out: EC50 for mAC9) [µM] | Compound | mAC1 activity [%] (100% = 300nM Gsα stimulation); 20µM fatty acid concentration [1] | mAC8 activity [%] (100% = 300nM Gsα stimulation) [2] | mAC3 activity [%] (100% = 300nM Gsα stimulation) [3] | mAC5 activity [%] (100% = 300nM Gsα stimulation) [4] | mAC4 activity [%] (100% = 300nM Gsα stimulation); 20µM fatty acid concentration [5] | mAC6 activity [%] (100% = 300nM Gsα stimulation) [6] | mAC2 activity [%] (100% = 300nM Gsα stimulation); 20µM fatty acid concentration [7] | mAC7 activity [%] (100% = 300nM Gsα stimulation); 20µM fatty acid concentration [8] | mAC9 activity [%] (100% = 300nM Gsα stimulation); 20µM fatty acid concentration ([9]; 20 µM fatty acid, 300 nM Gsα, single experiments)
1 |  |  |  | CCCCCCCCCC(O)CCCCCCCC(=O)O (stereo not drawn) [9-HSA, 9-Hydroxystearic acid] | 95% and 93% | 67% and 108% | 104% and 110% | 100% and 102% | 134% and 93% | 122% and 118% | 89% and 75% | 161% and 83% | 93% and 157%
2 | 128% and 86% and 116% | 165% and 99% and 97% and 190% | 13.7 | CCCCCCCCCCCC(=O)O [Lauric acid, Lauric (dodecanoic) acid] |  | 80% and 69% | 117% and 189% and 186% and 84% | 107% and 56% | 54% and 104% and 67% | 93% and 80% | 89% and 79% |  | 
